Values of other authors in US12151031B2, “Topical copper tripeptide composition” (YUVAN RESEARCH, INC., priority 2018, dated 2024).

Conditions: in vivo

- Elimination half-life: 1.5 to 2 h
Substance: glycyl-histidyl-lysin tripeptide in the form of its Cu Complex [GHK-Cu]
